Laboratory results reported in patent US20190289849A1, “Novel Plant Growth Regulators and Methods of Using Same” (Duke University, priority 2016, published 2019).
pIC50: −log10 of the molar value. Entries after “also recorded” stand apart in the source; their conditions may differ.

How the values were obtained:
lateral root clock = assay: Lateral root clock luminescence (pDR5:LUC) and pre-branch sites; format: in vivo, Arabidopsis thaliana
Procedure: (§1) To measure lateral root capacity, the primary root apical meristem of each seedling was sterilely excised at 7 days. The plants were given 3 days to grow out lateral roots, and then each emerged lateral root was counted using a dissection microscope, as described previously (Van Norman et al., Proceedings of the National Academy of Sciences of the United States of America, 2014. 111(13): p. E1300-E1309). Luciferase activity was measured as previously described, using exposure times of 7 min (Moreno-Risueno, M. A., et al., Science, 2010. 329(5997): p. 1306-1311). WOX5^+ and EN7^+ primordia were counted using a stereo zoom microscope (Zeiss). Lateral and primary root lengths for Arabidopsis thaliana and tomato were measured using ImageJ (National Institutes of Health) software. 3D images of rice root architecture were captured using a 360° revolving platform and these images were analyzed using GiA Roots (www.giaroots.org), as described previously by Topp (2013). Primary root lengths were determined by dissecting the root and measuring the length with a ruler. Shoot mass was measured after removing the shoots and drying them for 10 days at 60° C.
First, the effect of D15 on lateral root branching was characterized and is shown FIG. 1. […] By titrating D15 to its IC50 concentration (30 μM), the lateral root capacity was measured with enhanced sensitivity (FIGS. 1A-B). […]

lateral root primordia = assay: Lateral root primordia counts with WOX5 (stage 1) and EN7 (stage 3) markers, and primordia emergence; format: in vivo, Arabidopsis thaliana
Procedure: All seeds were in the Columbia-0 background. Seeds were sterilized with chlorine gas, incubated in 4° C. water for 2 days, and plated on 1% (wt/vol) Murashige and Skoog (1% MS) media with 1% agar. They were exposed to 100-130 μmol/(m^2s^1) illumination and grown vertically under long-day conditions at 22° C. Plants were analyzed at 7 days after stratification (das), unless noted otherwise. D15-treated media was made using D15 (N-(4-fluorobenzyl)-methoxycinnamic hydroxamic acid) synthesized by LeadGen Labs, LLC solubilized in DMSO. 100 mM D15 stock solution was diluted directly into 1% MS media for final concentrations ranging from 1 μM to 100 μM. For initial experiments testing the ability of apocarotenoids to rescue D15, plants were seeded on 1% MS media containing 30 μM D15 and 100 nM apocarotenoid (diluted from 1 mM stock solutions dissolved in DMSO). For subsequent experiments characterizing the effect of β-cyclocitral, plants were exposed to volatile analytical grade β-cyclocitral (≥97%, Sigma Aldrich) using 100×15 mm partitioned petri dishes. One side of the partition was filled with 25 μM β-cyclocitral diluted in 1% MS media. Seeds were plated on the other side of the partition, on 1% MS media. […] For norflurazone treatments, norflurazone (Chem Service) dissolved in DMSO was diluted to a final concentration of 500 nM norflurazone in 1% MS media. For all experiments, including those performed on tomatoes and rice, plants were never exposed to DMSO concentrations that exceeded 0.1%.
as §1
First, the effect of D15 on lateral root branching was characterized and is shown FIG. 1. […] NCEDs are a sub-group of CCDs that cleave carotenoids at the 11, 12′ positions. […] By titrating D15 to its IC50 concentration (30 μM), the lateral root capacity was measured with enhanced sensitivity (FIGS. 1A-B). To determine how D15 inhibits lateral root branching, its effect on the lateral root clock, which establishes the sites of lateral root initiation, was examined. To test this, a synthetic promoter driving luciferase (pDR5:LUC) was utilized. In control roots, luminescence intensity oscillates every six hours (FIG. 1C). Only the root cells that experience the peak oscillation intensity become competent to form lateral root pre-branch sites. […] To further characterize the effect of D15 on lateral root initiation, its effect on two stages of primordia development was determined, as marked by WOX5 (pWOX5:GFP) and EN7 (pEN7:GAL4; UAS:H2A-GFP). These lines allow visualization of the QC at stage 1 of primordia development and the endodermis at stage 3 of development, respectively. […] This further supports the lateral root clock evidence that D15 inhibits the initiation of lateral root primordia.

Arabidopsis thaliana [1] = assay: Lateral root capacity (emerged lateral roots after removal of the primary root apical meristem); format: in vivo; conditions: for lateral root capacity / branching in combination with D15 (screen): 30 μM D15 plus apocarotenoid, normalized to D15 treatment; for rescue of D15 inhibition of lateral root branching: D15-treated plants, apocarotenoid concentration varied for maximum rescue
Heinz tomatoes = assay: Tomato primary and lateral root growth; format: in vivo
Procedure: as §1, with “Heinz tomatoes were used for all tomato experiments. Seeds were sterilized using 40% liquid bleach for 30 min, then plated on 1% MS media in 120×120×17 mm square petri dishes. Seeds were kept in the dark at room temperature for 3 days, and then exposed to 100-130 μmol/(m^2s^1) illumination and grown vertically under long-day conditions at 22° C. For treating tomatoes, β-cyclocitral, norflurazone, and D15 were added directly to the media, at the concentrations described in the figures. Norflurazone was diluted to a final concentration of 1 μM in media. Tomato phenotypes were analyzed at 6 das. To measure” for “To measure”, “111(13): p. […]-[…]). Luciferase activity” for “111(13): p. E1300-E1309). Luciferase activity”

LeCCD1 = conditions: in vitro; cited from earlier work
Arabidopsis = assay: High concentration (10 mM) apocarotenoid effects on plant growth; format: in vivo; conditions: for herbicidal effect when sprayed on plants / method of lethality (phenotype): 10 mM per FIG. 11; for lateral root growth / root length / shoot mass: 10 mM
Procedure: FIG. 10 illustrates the effect of high doses of β-cyclocitral and DHAD on root growth. A) The effect of adding small volumes of 10 mM apocarotenoids daily to either the shoots, root tip, or the middle of the root. B) A confocal image of a healthy root stained with propidium iodide, which marks dead cells. C) A root treated with 10 mM β-cyclocitral applied to the tip of the root.
FIG. 11 illustrates the effect of 10 mM apocarotenoids on plant development. A) The percent change in lateral root capacity, normalized to control plants. Abbreviations: dihydro-β-ionone (DHβI), dimethyl-β-cyclocitral (DMβC). β-cyclocitral (β-cyc), pseudoionone (PI), and dihydroactinidiolide (DHAD). B) Confocal image of a control root stained with propidium iodide. C) Image of a root treated with safranal. D) Images of leaves form a control plant. E) Images of leaves from a plant treated with pseudoionone.
At high concentrations (10 mM) of β-cyclocitral or DHAD, root length, shoot mass, and lateral root growth were inhibited. […] In one embodiment, safranal may be detrimental to Arabidopsis at concentrations as low as 500 μM.

Arabidopsis thaliana [2] = assay: Primary and lateral root growth on exposure to volatile β-cyclocitral; format: in vivo
[3] = tested on: Azucena (tropical japonica) rice; assay: Rice root system architecture and shoot weight; format: in vivo
Procedure: as §1, with “Azucena (tropical japonica) seeds were dehulled and germinated in the dark for 3 days at 30° C. Germinated seeds were transferred to Yoshida's nutrient solution, solidified with 0.25% gelzan (Caisson Laboratories, Inc.), in 2 L glass cylinders, as described previously (Topp, C. N., et al., Proceedings of the National Academy of Sciences of the United States of America, 2013. 110(18): p. […]-[…].). Rice roots were imaged at 12 das. To measure” for “To measure”, “111(13): p. […]-[…]). Luciferase activity” for “111(13): p. E1300-E1309). Luciferase activity”

[4] = IC50 concentration of D15 (30 μM)

## N-(4-fluorobenzyl)-methoxycinnamic hydroxamic acid [D15]
Lateral root clock; D15-treated roots (100 μM per FIG. 1)
  peak oscillation intensity of pDR5:LUC luminescence vs control roots: significantly lower
Lateral root clock; D15-treated roots, p=0.009
  number of pre-branch sites: significantly decreased
Lateral root primordia; [4]
  decrease in number of stage 1 (WOX5) lateral root primordia: approximately 50%
  decrease in number of stage 3 (EN7) lateral root primordia: approximately 50%
Lateral root primordia; in vivo
  emergence of lateral root primordia compared to control roots: did not inhibit
Arabidopsis thaliana [1]; 100 μM D15
  lateral root capacity, maximum effect: completely inhibited
Arabidopsis thaliana [1]; D15 in 1% MS media, read-out: IC50 concentration for lateral root capacity
  pIC50: 4.52
Heinz tomatoes; Heinz tomatoes, D15 treatment
  lateral root length: does not decrease
Heinz tomatoes; tomato, D15 treatment
  primary root length: decreased
Heinz tomatoes; tomato, p=0.99
  lateral root branching: did not have a negative effect
LeCCD1
  enzyme preference, LeCCD1 compared to LeNCED1: preferentially targets LeCCD1

## CC1=C[C@H](O/C=C2/C(=O)O[C@@H]3c4ccccc4C[C@H]23)OC1=O [GR24, reference compound]
Arabidopsis thaliana [1]
  lateral root capacity / branching in combination with D15 (screen): further decreased

## CC(=O)/C=C/C=C(\C)CCC=C(C)C [pseudoionone]
Arabidopsis
  herbicidal effect when sprayed on plants: herbicidal effects
  method of lethality (phenotype): caused plants to become chlorotic

## CC(=O)/C=C/C1=C(C)CCCC1(C)C [β-ionone]
Arabidopsis thaliana [1]
  rescue of D15 inhibition of lateral root branching: did not have the capacity to rescue

## CC1=C(C=O)C(C)(C)CC=C1 [safranal]
Arabidopsis
  herbicidal effect when sprayed on plants: herbicidal effects
  method of lethality (phenotype): changed root cell morphology

## CC1=CC(=O)CC(C)(C)[C@@]1(O)/C=C/C(C)=C\C(=O)O [ABA, abscisic acid, reference compound]
Arabidopsis thaliana [1]
  lateral root capacity / branching in combination with D15 (screen): further decreased

## CC1=C(C=O)C(C)(C)CCC1 [β-cyclocitral]
Arabidopsis thaliana [2]; exogenous volatile application, in the presence and absence of D15
  primary and lateral root emergence: increased
Arabidopsis thaliana [2]; with or without co-treatment of D15
  lateral root length: increases
[3]; Azucena rice
  crown root growth: dramatically increasing
  primary root growth: dramatically increasing
[3]; Azucena rice, 10 μM β-cyclocitral per FIG. 8
  root system depth and compactness vs control plants: deeper and more compact
[3]; rice
  lateral root length: decreased
  shoot growth: remained unchanged
[3]; rice plants
  dry shoot weight: does not significantly change
Lateral root primordia; in D15-treated plants
  WOX5+ primordia initiation: did not rescue
Lateral root primordia; in the absence of D15
  WOX5+ sites: did not increase
Lateral root primordia; in the absence of D15, p=0.12
  number of EN7+ primordia: did increase
Lateral root primordia; in the presence of D15, p=0.02
  number of EN7+ primordia: did increase
Arabidopsis thaliana [1]
  lateral root capacity / branching in combination with D15 (screen): increase lateral root branching
  rescue of D15 inhibition of lateral root branching: fully rescue
Arabidopsis
  lateral root growth: inhibited
  root length: inhibited
  shoot mass: inhibited
Arabidopsis; 10 mM applied only to the root tip
  root growth: sufficient to reduce root growth
Heinz tomatoes; tomato, D15 plus exogenous β-cyclocitral
  rescue of D15 primary root inhibition: could not be rescued
Heinz tomatoes; tomato, dose-dependent
  lateral root length: significant increase
Heinz tomatoes; tomato, norflurazone plus β-cyclocitral
  rescue of primary root growth in norflurazone-treated plants: fully rescued
Heinz tomatoes; tomato, uninhibited plants
  primary root length: significantly increased

## CC1=C(C=O)C(C)CCC1 (stereo not shown)
Arabidopsis thaliana [1]
  rescue of D15 inhibition of lateral root branching: did not have the capacity to rescue
Arabidopsis
  herbicidal effect when sprayed on plants: herbicidal effects

## CC1(C)CCC[C@@]2(C)OC(=O)C=C12 [DHAD, dihydroactinidiolide]
Arabidopsis thaliana [1]
  lateral root capacity / branching in combination with D15 (screen): increase lateral root branching
  rescue of D15 inhibition of lateral root branching: only partially rescue
Arabidopsis
  lateral root growth: inhibited
  root length: inhibited
  shoot mass: inhibited

## CNc1cnn(-c2cccc(C(F)(F)F)c2)c(=O)c1Cl [norflurazone, 4-chloro-5-(methylamino)-2-(α,α,α-trifluoro-m-tolyl)-3(2H)-pyridazinone]
Lateral root primordia; 500 nM norflurazone in media
  effect on lateral root development (primordia initiation, maintenance, development, emergence): blocks normal lateral root development; also recorded: blocked primordia initiation as well as maintenance, post-initiation development, and emergence
Heinz tomatoes; tomato, 1 μM norflurazone in media
  primary and lateral root growth: decreased
